According to publication PMC4685510, “A Cell Biologist’s Field Guide to Aurora Kinase Inhibitors” (Frontiers in Oncology, 2015):
“Also recorded” adds a separate entry of the source. Read-outs that look alike come from different tables or passages of the source.

What was measured:
[1] = system: pLATS2(Ser 83) in RPE1 cells; experiment: Substrate phosphorylation immunofluorescence assay, pLATS2(Ser 83), RPE1; type: cell-based, human; settings: RPE1, 8 h inhibitor treatment; for IC50: Homo sapiens, RPE-1, read-out: pLATS2 (Ser83) IC50
Experimental: (§1) We employed the protocol described in Figure 3D to analyze substrate phosphorylation in HeLa cells following treatment with all 10 inhibitors in dose–response. Asynchronous cells were incubated with vehicle (DMSO) or different inhibitor doses for 8 h and then fixed and labeled with a mixture of three antibodies directed against pLATS2(Ser 83), pH3(Ser 28), and MPM2 [which detects mitotic phosphoepitopes; ([86])]. While both the anti-pLATS2(Ser 83) and MPM2 antibodies are mouse monoclonals, they are of different IgG subclasses [IgG2b for anti-pLATS2(Ser 83) and IgG1 for MPM2], and can thus be detected with subclass-specific secondary antibodies (Table S3 in Supplementary Material).
(§2) In control mitotic cells, pLATS2(Ser 83) is concentrated in foci around the spindle poles (Figure 3E; top row – green arrow) and pH3(Ser 28) is on the mitotic chromatin (Figure 3E; top row – red arrow). Selective kinase inhibition should result in loss of one signal but not the other, as illustrated by the example images for specific conditions in Figure 3E (middle and bottom rows). Cells were imaged in 4 channels to visualize pLATS2(Ser 83), pH3(Ser 28), MPM2, and DNA (labeled with Hoechst) and mitotic cells were segmented based on their bright MPM2 labeling (Figure 3E). Intensity and area thresholds were set to select the pLATS2(Ser 83) foci and the pH3(Ser 28)-labeled chromatin in their respective channels in DMSO-treated control cells and the same thresholds were applied for inhibitor-treated cells. The mean fluorescence intensity per pixel was measured to assess the activities of the kinases targeting these two substrate phosphorylation sites.
(§3) Twelve thousand HeLa cells, 10,000 U2OS cells, or 8,000 RPE1 cells were seeded into 96-well glass-bottom Sensoplates (Greiner) 16 h before inhibitor addition. Prior to seeding, the glass-bottom plates were coated with poly-L-lysine (Sigma). […] After 8 h cells were fixed with 4% PFA for 20 min at room temperature. The fixed cells were washed with PBS. For immunostaining, cells were permeabilized and blocked with PBS containing 10% normal donkey serum (Jackson ImmunoResearch) and 0.1% Triton-X100 for 1 h at room temperature. Primary antibodies against phospho-LATS2 (Ser 83), phospho-histone H3(Ser 28), and anti-phospho-MPM2 (see Table S3 in Supplementary Material) were incubated for 1 h at room temperature. […] Cells were then washed twice with PBS containing 0.1% Triton-X100. Image acquisition in four channels was performed using a CV7000 spinning disk confocal system (Yokogawa Electric Corporation) with a 40 × 0.95 NA U-PlanApo objective and 2560 × 2160 pixel sCMOS camera. […] Fifty fields per well were imaged with quadruplicate wells for each condition. Image analysis was done using the CV7000 image analysis software (Yokogawa Electric Corporation). Between 100 and 1,000 mitotic cells per condition were segmented applying object identification parameters to select for bright MPM2 labeling. Using a nuclear identifier protocol, minimum intensity thresholds were set for pLATS2(Ser 83) and the pH3(Ser 28) signals, and the resulting identified objects were eroded, dilated, and filtered for size by user-defined thresholds. For only the MPM2-positive mitotic cells, the mean fluorescence intensity of the identified pLATS2(Ser 83) and pH3(Ser 28) objects was measured, and the average intensity per cell per well was calculated. The same thresholds were applied for all of the inhibitor-treated samples, which were processed, imaged, and analyzed in parallel with control DMSO-treated cells. Data were fit using a four-parameter, variable slope fit in Prism (GraphPad). Primary and secondary antibody dilutions can be found in Table S3 in Supplementary Material.

[2] = system: pH3(Ser 28) in U2OS cells; experiment: Substrate phosphorylation immunofluorescence assay, pH3(Ser 28), U2OS; type: cell-based, human; settings: Homo sapiens, read-out: pHistone H3 (Ser28) IC50
U2OS cells [3] = experiment: Cytokinesis assay (live imaging, YFP-α-tubulin; H2B-RFP), U2OS; type: cell-based; settings: Homo sapiens, read-out: Cytokinesis IC50
[4] = system: pLATS2(Ser 83) in U2OS cells; experiment: Substrate phosphorylation immunofluorescence assay, pLATS2(Ser 83), U2OS; type: cell-based, human; settings: 8 h inhibitor treatment; for IC50: Homo sapiens, read-out: pLATS2 (Ser83) IC50
Experimental: as §1, §2, §3

[5] = system: HeLa, RPE1, and U2OS cells; experiment: Cellular proliferation analysis (ATPLite, 24 h); settings: HeLa, RPE1, U2OS; 24 h (Figure 4D, Figure S2B)
[6] = system: pLATS2(Ser 83) in HeLa cells; experiment: Substrate phosphorylation immunofluorescence assay, pLATS2(Ser 83), HeLa; type: cell-based, human; settings: HeLa; for pLATS2 (Ser83) IC50 / IC50: 8 h inhibitor treatment; for IC50: Homo sapiens, 8 h, read-out: pLATS2 (Ser83) IC50
Experimental: as §1, §2, §3

[7] = system: pH3(Ser 28) in HeLa cells; experiment: Substrate phosphorylation immunofluorescence assay, pH3(Ser 28), HeLa; type: cell-based, human; settings: for IC50: Homo sapiens, 8 h, read-out: pHistone H3 (Ser28) IC50
HeLa cells [8] = experiment: Cytokinesis assay (live imaging, YFP-α-tubulin; H2B-RFP), HeLa; type: cell-based, human; settings: for IC50: Homo sapiens, HeLa, read-out: Cytokinesis IC50
[9] = system: pAuroraB(Thr 232), pH3(Ser 10), pH3(Ser 28) in HeLa cells; experiment: Immunoblotting of pAuroraB(Thr 232), pH3(Ser 28) and pH3(Ser 10); type: cell-based, human; settings: immunoblot, dose–response
RPE1 cells [10] = experiment: Cytokinesis assay (live imaging, YFP-α-tubulin; H2B-RFP), RPE1; type: cell-based; settings: Homo sapiens
[11] = system: 363 human kinases (including Aurora A/B/C); experiment: biochemical; type: biochemical
[12] = molecular target: 363 human kinases (including Aurora A/B/C) (Homo sapiens, UniProt Q16539); experiment: biochemical; type: biochemical; settings: read-out: % Enzyme Activity (relative to DMSO controls)
363 human kinases (including Aurora A/B/C) (Homo sapiens, UniProt Q16539), sequence (Q16539 whole entry): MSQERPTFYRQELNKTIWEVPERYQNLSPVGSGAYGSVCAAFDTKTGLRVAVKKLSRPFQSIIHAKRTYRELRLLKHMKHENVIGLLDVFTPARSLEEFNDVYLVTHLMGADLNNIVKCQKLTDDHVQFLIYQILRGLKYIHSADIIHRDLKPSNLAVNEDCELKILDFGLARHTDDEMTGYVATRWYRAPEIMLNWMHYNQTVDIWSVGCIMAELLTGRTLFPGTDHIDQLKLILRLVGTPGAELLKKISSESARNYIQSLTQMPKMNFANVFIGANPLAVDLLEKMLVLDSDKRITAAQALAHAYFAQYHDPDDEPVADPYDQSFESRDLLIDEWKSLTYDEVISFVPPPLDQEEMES

[13] = system: pAuroraA(Thr 288) in HeLa cells; experiment: Immunoblotting of Aurora A activation loop phosphorylation; type: cell-based, human; settings: immunoblot
[14] = system: pH3(Ser 28) in RPE1 cells; experiment: Substrate phosphorylation immunofluorescence assay, pH3(Ser 28), RPE1; type: cell-based, human; settings: Homo sapiens, read-out: pHistone H3 (Ser28) IC50
Aurora B/INCENP^783–918 = molecular target: T1, Aurora B/INCENP^783–918 (Homo sapiens, UniProt Q96GD4); experiment: Aurora B/INCENP^783–918 kinase assay (ADP-Glo); type: biochemical
T1 construct: purchased SignalChem
T1 sequence (Q96GD4 whole entry): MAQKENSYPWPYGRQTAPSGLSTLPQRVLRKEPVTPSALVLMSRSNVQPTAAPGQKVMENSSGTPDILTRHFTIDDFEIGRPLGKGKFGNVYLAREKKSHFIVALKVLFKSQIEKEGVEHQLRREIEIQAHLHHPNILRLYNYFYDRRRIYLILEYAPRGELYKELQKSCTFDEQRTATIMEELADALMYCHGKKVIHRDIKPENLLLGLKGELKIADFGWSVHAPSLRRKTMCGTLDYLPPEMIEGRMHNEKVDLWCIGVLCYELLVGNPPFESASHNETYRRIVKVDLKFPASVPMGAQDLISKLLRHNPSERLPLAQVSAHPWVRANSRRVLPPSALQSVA
T1 sequence (Q9NQS7 783-918 partner limits assumed): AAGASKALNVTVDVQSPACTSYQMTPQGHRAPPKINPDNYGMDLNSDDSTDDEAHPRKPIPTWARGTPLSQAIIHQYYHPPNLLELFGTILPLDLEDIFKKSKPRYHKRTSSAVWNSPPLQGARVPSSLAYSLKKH

Aurora B = settings: read-out: Aurora B IC50 (Published), cited from earlier work
[15] = molecular target: T2, full-length human Aurora A (Homo sapiens, UniProt O14965); experiment: Aurora A kinase assay (ADP-Glo, Kemptide substrate); settings: Aurora A Ki Mean ± SD, [ATP] = Km(ATP) (35 μM); Ki calculated from IC50 with tight-binding equation
T2 sequence (O14965 1-403): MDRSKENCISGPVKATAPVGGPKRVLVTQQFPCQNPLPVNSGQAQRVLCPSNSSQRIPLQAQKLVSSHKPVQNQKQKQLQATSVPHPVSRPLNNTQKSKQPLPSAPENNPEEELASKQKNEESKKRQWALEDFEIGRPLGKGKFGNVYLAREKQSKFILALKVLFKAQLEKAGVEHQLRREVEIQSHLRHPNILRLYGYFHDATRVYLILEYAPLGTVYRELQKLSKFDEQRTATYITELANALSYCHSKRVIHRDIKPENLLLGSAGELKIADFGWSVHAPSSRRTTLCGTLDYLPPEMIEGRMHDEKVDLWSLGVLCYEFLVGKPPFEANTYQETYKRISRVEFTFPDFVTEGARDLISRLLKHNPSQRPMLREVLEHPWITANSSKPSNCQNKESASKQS

Aurora A/TPX2^1–43 = molecular target: T3, Aurora A/TPX2^1–43 (Homo sapiens, UniProt O14965); experiment: Aurora A/TPX2^1–43 kinase assay (ADP-Glo); settings: Aurora A-TPX2^1–43 Ki Mean ± SD, [ATP] = Km(ATP) (3 μM); 40 nM TPX2^1–43
T3 sequence (O14965 1-403): T2 sequence (O14965 1-403)
T3 sequence (Q9ULW0 1-43 partner limits assumed): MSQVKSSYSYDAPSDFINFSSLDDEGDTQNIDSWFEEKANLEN

Aurora A-TPX2 = settings: cited from earlier work; for IC50: ref 121, read-out: Aurora A-TPX2 IC50 (Published)
Aurora A = settings: read-out: Aurora A IC50 (Published), cited from earlier work
RPE1 cells [16] = experiment: G2 duration live imaging assay (GFP-PCNA; H2B-RFP), RPE1; type: cell-based; settings: Homo sapiens, RPE-1; RPE1; read-out: G2/M (G2 duration) IC50
U2OS cells [17] = experiment: G2 duration live imaging assay (GFP-PCNA; H2B-RFP), U2OS; type: cell-based; settings: Homo sapiens, read-out: G2/M (G2 duration) IC50
HeLa cells [18] = experiment: G2 duration live imaging assay (GFP-PCNA; H2B-RFP), HeLa; type: cell-based, human; settings: Homo sapiens, read-out: G2/M (G2 duration) IC50
[19] = fold difference in potency calculated by dividing Ki values, for GSK1070916 the Aurora B Ki of ref 61 was used
[20] = RPE-1, RPE1, cytokinesis failure, read-out: Cytokinesis IC50
[21] = RPE-1, RPE1, 8 h inhibitor treatment

Row | Structure (SMILES) | pLATS2 (Ser83) IC50 [6] | Concentration completely eliminating pH3(Ser 28) labeling without affecting pLATS2(Ser 83) labeling [7] [nM] | IC50 (U2OS cells [3]; cytokinesis failure) [nM] | IC50 ([7]; 8 h inhibitor treatment) [nM] | IC50 (HeLa cells [8]; cytokinesis failure) [nM] | IC50 (RPE1 cells [10]; [20]) [nM] | IC50 (Aurora A-TPX2) [nM] | IC50 [1] [nM] | IC50 ([2]; 8 h inhibitor treatment) [nM] | IC50 (RPE1 cells [16]) [nM] | IC50 [4] [nM] | IC50 (U2OS cells [17]) [nM] | Specificity window (pLATS2(Ser 83) versus pH3(Ser 28)) [6] [fold] | IC50 [6] [nM] | IC50 [14, 21] [nM] | IC50 (HeLa cells [18]) [nM] | also measured
1 | CCN(CCO)CCCOc1ccc2c(Nc3cc(CC(=O)Nc4cccc(F)c4)[nH]n3)ncnc2c1 [AZD1152-HQPA] | NE (100 nM); also recorded: NE@100 nM | < 100 | – | – | – | – | – | – | – | – | – | – | – | – | – | – | pLATS2 (Ser83) IC50 [1]: NE@200 nM; IC50 ([2]; 8 h): 12 nM; IC50 (U2OS cells [3]): 20 nM; pLATS2 (Ser83) IC50 [4]: NE@200 nM; Toxicity / cytotoxicity (cellular proliferation) [5]: not observed; IC50 [7]: 5 nM; IC50 (HeLa cells [8]): 4 nM; Effect on pH3(Ser 10), pH3(Ser 28), pAuroraB(Thr 232) [9]: eliminated; IC50 (RPE1 cells [10]; RPE-1, read-out: Cytokinesis IC50): 23 nM; Kinases inhibited ≥65% of control [11]: Aurora B was the only enzyme; remaining activity at 0.1 µM [12]: 104%; Effect on Aurora A activity (pAuroraA Thr 288) ([13]; 300 nM (Figure S6)): did not; Effect on pAuroraA(Thr 288) ([13]; dose–response): did not affect; IC50 ([14]; RPE-1, 8 h): 25 nM
2 | CCS(=O)(=O)Nc1ccc2c(c1)/C(=C(/Nc1ccc(CN3CCCCC3)cc1)c1ccccc1)C(=O)N2 [Hesperadin] | NE (100 nM); also recorded: NE@100 nM | < 100 | 17 | 14 | 14 | 47 | 11 | – | – | – | – | – | – | – | – | – | Ki (Aurora B/INCENP^783–918; Aurora B-INCENP^783–918 Ki Mean ± SD, [ATP] = Km(ATP) (10 μM)): 0.03 ± 0.014 nM; Selectivity ratio Aur B-INCENP^783–918 versus Aur A (Aurora B/INCENP^783–918; [19]): 40.2 fold; Selectivity ratio Aur B-INCENP^783–918 versus Aur A-TPX2^1–43 (Aurora B/INCENP^783–918; [19]): 45.3 fold; IC50 (Aurora B; ref 45): 250 nM; IC50 (Aurora B; ref 121): 3 nM; Ki [15]: 1.21 ± 0.14 nM; Ki (Aurora A/TPX2^1–43): 1.37 ± 0.12 nM; Stability under long-term live imaging conditions (HeLa cells [8]; ability to block cytokesis over time in live imaging, cell line not specified): appeared to be unstable under live imaging conditions; also recorded: appears to be unstable under long-term live imaging conditions
3 | O=C(O)c1ccc(Nc2ncc3c(n2)-c2ccc(Cl)cc2C(c2c(F)cccc2F)=NC3)cc1 [MLN8054] | – | – | – | 2900 | – | – | – | 720 | 3300 | 500 | 800 | 957 | […] | 290 | 880 | 736 | IC50 (Aurora A; ref 48): […]; IC50 (Aurora A; ref 59): […]; Ki (Aurora A-TPX2; ref 71, read-out: Aurora A-TPX2 Ki (Published)): 3.3 nM
4 | COc1cc(Nc2ncc3c(n2)-c2ccc(Cl)cc2C(c2c(F)cccc2OC)=NC3)ccc1C(=O)O [MLN8237] | – | – | – | 160 | – | – | – | 130 | 210 | 115 | 92 | 157 | 4 | 37 | 130 | 128 | –
5 | Cc1cc(Nc2cc(N3CCN(C)CC3)nc(Sc3ccc(NC(=O)C4CC4)cc3)n2)[nH]n1 [VX-680] | – | – | – | 45 | – | – | – | – | – | – | – | – | – | 150 | – | – | IC50 (Aurora A; ref 119): […]
6 | COc1cc2c(Nc3ccc(NC(=O)c4ccccc4)cc3)ncnc2cc1OCCCN1CCOCC1 [ZM447439] | NE (3 μM); also recorded: NE@3 μM | – | 613 | 410 | 615 | 1320 | 360 | – | – | – | – | – | – | – | – | – | –
